What follows are molecules tested on M-NFS-60 cells (assay: M-NFS-60 cell in vitro assay (CCK, 48 h, M-CSF factor medium)). Conditions: M-NFS-60 cells; read-out: M-NFS-60cellassay IC50.
Assay type: cell-based
Method in brief: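 Mouse M-NFS-60 cells (2000/well) in RPMI-1640 with 10% serum and M-CSF (25 ng/ml) were pre-incubated 4 h, then exposed to DMSO-diluted compound gradients for 48 h at 5% CO2. Viability read by CCK, 2 h, OD 450 nm; IC50 from curve fitting.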
`Cn1cc(-c2cncc(N[C@H]3CCc4c(NCc5cccc(Cl)c5)cccc43)n2)cn1` [Compound 60c] gave an IC50 greater than 0.5 µM.
Work on `CN1CCc2cc(NC(=O)c3cccc4c3CC[C@@H]4N(C)c3cncc(-c4cnn(C)c4)c3)ccc2C1` [Compound 22e] yielded an IC50 of 0.2 to 0.5 µM.
`Cc1cccc(NC(=O)c2cccc3c2CC[C@@H]3Oc2cnc3cnn(C)c3c2)c1F` [Compound 75, (S)—N-(2-fluoro-3-methylphenyl)-1-((1-methyl-1H-pyrazolo[4,3-b]pyridin-6-yl)oxy)-2,3-dihydro-1H-indene-4-carboxamide] showed an IC50 of less than 0.05 µM.
`Cn1cc(-c2cnc(N)c(O[C@H]3CCc4c(NC(=O)c5cccc(C6CC6)c5)cccc43)c2)cn1` [Compound 3g] showed an IC50 of less than 0.05 µM.
In the case of `Cc1c(Nc2cccc3c2CC[C@@H]3Nc2cncc(-c3cnn(C)c3)c2)noc1C(C)(C)C` [Compound 40, (S)—N^4-(5-(tert-butyl)-4-methylisoxazol-3-yl)-N^1-(5-(1-methyl-1H-pyrazol-4-yl)pyridin-3-yl)-2,3-dihydro-18-indene-1,4-diamine], the IC50 is reported as less than 0.05 µM.
For `Cn1cc(-c2cncc(N[C@H]3CCc4c(C(=O)Nc5ccc(Cl)c(F)c5)cccc43)c2)cn1` [Compound 14ao], the IC50 was less than 0.05 µM.
`Cc1cc(NC(=O)c2cccc3c2CC[C@@H]3Oc2cnc3cnn(C)c3c2)ccc1F` [Compound 76am] was tested, and the IC50 was less than 0.05 µM.
In the case of `Cn1ncc2ncc(O[C@H]3CCc4c(C(=O)Nc5cccc(C6CC6)c5)ccc(F)c43)cc21` [Compound 85, (S)—N-(3-cyclopropylphenyl)-7-fluoro-1-((1-methyl-1H-pyrazolo[4,3-b]pyridin-6-yl)oxy)-2,3-dihydro-1H-indene-4-carboxamide], the IC50 is reported as less than 0.05 µM.
With `Cc1cccc(NCc2cccc3c2CC[C@@H]3Nc2cnc3cn(C)nc3c2)c1` [Compound 96b] the IC50 was 0.05 to 0.2 µM.
Molecule `CN(c1cncc(-c2cnn(C)c2)c1)[C@H]1CCc2c(C(=O)Nc3cccc(C(F)(F)F)c3)cccc21` [Compound 22b] has an IC50 of less than 0.05 µM.
`Cn1cc(-c2cncc(N[C@H]3CCc4c(NC(=O)NCC5CC5)cccc43)n2)cn1` [Compound 65d] was tested, and the IC50 was greater than 0.5 µM.
For `CN(C)Cc1cccc(C(=O)Nc2cccc3c2CC[C@@H]3Oc2cc(-c3cnn(C)c3)cnc2N)c1` [Compound 3j], the IC50 was greater than 0.5 µM.
`Cn1cc2ncc(N[C@H]3CCc4c(Nc5noc(C6CC6)n5)cccc43)cc2n1` [Compound 93j] showed an IC50 of 0.2 to 0.5 µM.
`COc1cccc(C(=O)Nc2cccc3c2OCCC3Oc2cc(-c3cnn(C)c3)cnc2N)c1` (stereo not drawn) [Compound 2c] was tested, and the IC50 was 0.2 to 0.5 µM.
Molecule `Cn1cc(-c2cncc(N[C@H]3CCc4c(Nc5ncc(C(C)(C)C)s5)cccc43)c2)cn1` [Compound 42m] has an IC50 of 0.05 to 0.2 µM.
With `Cn1cc2ncc(N[C@H]3CCc4c(Nc5cc(C67CC(F)(C6)C7)on5)cccc43)cc2n1` [Compound 91s] the IC50 was less than 0.05 µM.
Work on `Cn1ncc2ncc(N[C@H]3CCc4c(Nc5cc(C(C)(C)CO)on5)cccc43)cc21` [Compound 91d] yielded an IC50 of less than 0.05 µM.
For `Cc1cccc(C(=O)Nc2cccc3c2CC[C@@H]3Nc2cncc(Cl)n2)c1` [Compound 30, (S)—N-(1-((6-chloropyrazin-2-yl)amino)-2,3-dihydro-1H-inden-4-yl)-3-methylbenzamide], the IC50 was less than 0.05 µM.
`COc1cccc(C(=O)Nc2cccc3c2CC[C@@H]3Oc2cc(-c3cnn(C)c3)cnc2N)c1` [Compound 3b] was tested, and the IC50 was less than 0.05 µM.
Work on `Cn1cc2ncc(N[C@H]3CCc4c(Nc5noc(C6(C)CC6)n5)cccc43)cc2n1` [Compound 93d] yielded an IC50 of less than 0.05 µM.
`COc1cccc(NC(=O)c2cccc3c2CC[C@@H]3N(C)c2cnc3cnn(C)c3c2)c1F` [Compound 80x] was tested, and the IC50 was 0.05 to 0.2 µM.
`COc1cccc(C(=O)Nc2cccc3c2CC[C@H]3Oc2cc(-c3cnn(C)c3)cnc2N)c1` [Compound 3a] showed an IC50 greater than 0.5 µM.
`CN1CCC(NC(=O)c2cccc3c2CC[C@@H]3Nc2cncc(-c3cnn(C)c3)n2)CC1` [Compound 27h] gave an IC50 greater than 0.5 µM.
Work on `CN1CCc2ccc(NC(=O)c3cccc4c3CC[C@@H]4N(C)c3cncc(-c4cnn(C)c4)c3)cc2C1` [Compound 22c] yielded an IC50 of 0.05 to 0.2 µM.
`CN(C)Cc1ccc(NC(=O)c2cccc3c2CC[C@@H]3N(C)c2cnc3cnn(C)c3c2)cc1F` [Compound 80c] showed an IC50 of 0.05 to 0.2 µM.
`CN(c1cnc2cn(C)nc2c1)[C@H]1CCc2c(C(=O)Nc3ccc(F)c(Cl)c3)cccc21` [Compound 80t] gave an IC50 of less than 0.05 µM.
With `CN(c1cnc2cnn(C)c2c1)[C@H]1CCc2c(C(=O)Nc3ccc4c(c3)OC(F)(F)O4)cccc21` [Compound 80i] the IC50 was 0.05 to 0.2 µM.
`Cn1cc(-c2cncc(O[C@H]3CCc4c(C(=O)Nc5ccc(C(F)(F)F)cc5)cccc43)c2)cn1` [Compound 17, (S)-1-((5-(1-methyl-1H-pyrazol-4-yl)pyridin-3-yl)oxy)-N-(4-(trifluoromethyl)phenyl)-2,3-dihydro-1H-indene-4-carboxamide] gave an IC50 of less than 0.05 µM.
In the case of `CN1CCN(c2ccc(NC(=O)c3cccc4c3CC[C@@H]4Nc3cncc(-c4cnn(C)c4)c3)cc2)CC1` [Compound 14aq], the IC50 is reported as 0.2 to 0.5 µM.
`CN(c1cncc(-c2cnn(C)c2)c1)[C@H]1CCc2c(NC(=O)c3ccc(C(F)(F)F)cc3)cccc21` [Compound 23, (S)—N-(1-(methyl (5-(1-methyl-1H-pyrazol-4-yl)pyridin-3-yl)amino)-2,3-dihydro-1H-inden-4-yl)-4-(trifluoromethyl)benzamide] showed an IC50 greater than 0.5 µM.
For `CN(c1cnc2cnn(C)c2c1)[C@H]1CCc2c(C(=O)Nc3ccc(F)c(Cl)c3)cccc21` [Compound 80r], the IC50 was less than 0.05 µM.
`Cc1cncc(Nc2cccc3c2CC[C@@H]3Nc2cncc(-c3cnn(C)c3)n2)c1` [Compound 39b] gave an IC50 greater than 0.5 µM.
`Cn1cc(-c2cncc(N[C@H]3CCc4c(Nc5cc(-c6ccccc6)on5)cccc43)c2)cn1` [Compound 42r] gave an IC50 of 0.05 to 0.2 µM.
Molecule `Cn1ncc2ncc(N[C@H]3CCc4c(Nc5noc(C(C)(C)C)n5)cccc43)cc21` [Compound 93a] has an IC50 of less than 0.05 µM.
`CN(C)Cc1ccc(NC(=O)c2cccc3c2CC[C@@H]3Oc2cncc(-c3cnn(C)c3)c2)cc1` [Compound 19c] showed an IC50 of 0.05 to 0.2 µM.
Work on `Cn1cc(-c2cncc(N[C@H]3CCc4c(C(=O)Nc5nn(C)c6ccccc56)cccc43)c2)cn1` [Compound 14ag] yielded an IC50 of less than 0.05 µM.
`Cn1cc(-c2cncc(N[C@H]3CCc4c(C(=O)Nc5cccc(C6CC6)c5)ccc(F)c43)c2)cn1` [Compound 50, (S)—N-(3-cyclopropylphenyl)-7-fluoro-1-((5-(1-methyl-1H-pyrazol-4-yl)pyridin-3-yl)amino)-2,3-dihydro-1H-indene-4-carboxamide] gave an IC50 of less than 0.05 µM.
`Cn1cc(-c2cncc(N[C@H]3CCc4c(CNc5cccc(C(F)(F)F)c5)cccc43)c2)cn1` [Compound 59c] showed an IC50 greater than 0.5 µM.
With `CN(C)Cc1cc(NC(=O)c2cccc3c2CC[C@@H]3Oc2cncc(-c3cnn(C)c3)c2)ccc1C(F)(F)F` [Compound 19q] the IC50 was less than 0.05 µM.
With `Cn1cc(-c2cncc(N[C@H]3CCc4c(C(=O)Nc5ccccc5F)cccc43)c2)cn1` [Compound 14ae] the IC50 was less than 0.05 µM.
In the case of `Cn1cc2ncc(N[C@H]3CCc4c(Nc5noc(C6(C(F)(F)F)CC6)n5)cccc43)cc2n1` [Compound 93g], the IC50 is reported as less than 0.05 µM.
Work on `CN(C)Cc1ccc(NC(=O)c2cccc3c2CC[C@@H]3N(C)c2cncc(-c3cnn(C)c3)c2)cc1` [Compound 22f] yielded an IC50 greater than 0.5 µM.
`Cn1cc(-c2cncc(N[C@H]3CCc4c(NC(=O)c5cccc(C6CC6)c5)ccc(F)c43)c2)cn1` [Compound 46c] showed an IC50 of less than 0.05 µM.
`Cn1nc(Nc2cccc3c2CC[C@@H]3Nc2cncc(Cl)c2)cc1C(F)(F)F` [Compound 42d] was tested, and the IC50 was greater than 0.5 µM.
In the case of `Cc1cccc(C(=O)Nc2cccc3c2CC[C@@H]3Nc2cncc(-c3cnn(C)c3)c2)c1` [Compound 12, (S)-3-methyl-N-(1-((5-(1-methyl-1H-pyrazol-4-yl)pyridin-3-yl)amino)-2,3-dihydro-1H-inden-4-yl)benzamide], the IC50 is reported as less than 0.05 µM.
Work on `Cn1cc2ncc(N[C@H]3CCc4c(Nc5noc(C6(C)CCCC6)n5)cccc43)cc2n1` [Compound 93m] yielded an IC50 of less than 0.05 µM.
For `Cn1cc(-c2cncc(N[C@H]3CCc4c(C(=O)Nc5cncc(Cl)c5)cccc43)n2)cn1` [Compound 27k], the IC50 was less than 0.05 µM.
For `Cn1cc(-c2cncc(N[C@@H]3CCc4c(NC(=O)c5cccc(C(F)(F)F)c5F)cccc43)n2)cn1` [Compound 25d], the IC50 was greater than 0.5 µM.
For `Cc1cccc(C(=O)Nc2cccc3c2CC[C@H]3Oc2cncc(-c3cnn(C)c3)c2)c1` [Compound 16, (R)-3-methyl-N-(1-((5-(1-methyl-1H-pyrazol-4-yl)pyridin-3-yl)oxy)-2,3-dihydro-1H-inden-4-yl)benzamide], the IC50 was greater than 0.5 µM.
`Cn1ncc2ncc(O[C@H]3CCc4c(NC(=O)c5cccc(C6CC6)c5)cccc43)cc21` [Compound 77, (S)-3-cyclopropyl-N-(1-((1-methyl-1H-pyrazolo[4,3-b]pyridin-6-yl)oxy)-2,3-dihydro-1H-inden-4-yl)benzamide] gave an IC50 of 0.05 to 0.2 µM.
Molecule `Cn1cc(-c2cncc(N[C@H]3CCc4c(C(=O)Nc5cccc(CN6CCCCC6)c5)cccc43)c2)cn1` [Compound 14at] has an IC50 of 0.05 to 0.2 µM.
With `Cn1cc2ncc(N[C@H]3CCc4c(Nc5cc(C6(C(F)(F)F)CCC6)on5)cccc43)cc2n1` [Compound 91n] the IC50 was less than 0.05 µM.
`Cn1cc(-c2cncc(N[C@H]3CCc4c(NC(=O)c5cccc(CN6CCCC6)c5)cccc43)c2)cn1` [Compound 28b] showed an IC50 greater than 0.5 µM.
Molecule `Cn1cc2ncc(N[C@H]3CCc4c(C(=O)Nc5cccc(C6CC6)c5)cccc43)cc2n1` [Compound 74a] has an IC50 of less than 0.05 µM.
With `Cn1cc2ncc(N[C@H]3CCc4c(Nc5nc(C(C)(C)C)cs5)cccc43)cc2n1` [Compound 91i] the IC50 was less than 0.05 µM.
`CN(c1cnc2cn(C)nc2c1)[C@H]1CCc2c(C(=O)Nc3cccc(C4CC4)c3)cccc21` [Compound 80b] gave an IC50 of less than 0.05 µM.
`Cn1cc2ncc(N[C@H]3CCc4c(Nc5cc(C6(C(F)(F)F)CC6)on5)cccc43)cc2n1` [Compound 91m] gave an IC50 of less than 0.05 µM.
In the case of `Cc1cccc(C(=O)Nc2cccc3c2CC(F)C3Nc2cncc(-c3cnn(C)c3)c2)c1` (stereo not drawn) [Compound 44c], the IC50 is reported as 0.05 to 0.2 µM.
`Cn1cc2ncc(O[C@H]3CCc4c(C(=O)Nc5cccc(C(F)(F)F)c5F)cccc43)cc2n1` [Compound 76av] showed an IC50 of less than 0.05 µM.
`Cn1cc(-c2cncc(N[C@H]3CCc4c(NCc5cccc(F)c5)cccc43)n2)cn1` [Compound 60d] showed an IC50 greater than 0.5 µM.

Source: patent US20260125359A1, “HETEROARYL COMPOUNDS AS MULTI-TARGET PROTEIN KINASE INHIBITORS” (FUJIAN HAIXI PHARMACEUTICALS CO., LTD., priority 2023, published 2026)
